Toxic doses and inconclusive results are not listed. No stated cut-off is given here; in the data, active means T/C of 150% or more; inactive means T/C below 125%.
Test system: L1210 leukemia ip in BDF1 mice, survival T/C
Assay: NCI In Vivo Anticancer Drug Screen. Data for tumor model L1210 Leukemia (intraperitoneal) in B6D2F1 (BDF1) mice
Details: endpoint: mean survival time, higher = longer survival
In short: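 Value reflects the ratio of survival in compound-treated mice to survival in vehicle-treated controls, with both groups carrying the same transplanted tumor.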

Measured: T/C

c1ccc(CSSCc2ccccc2)cc1
inactive: dose: 100.0 mg/kg/injection, schedule: Q01DX009 (ip), vehicle: Klucel (hydroxypropylcellulose) (HPC) 100 % of control | dose: 100.0 mg/kg/injection, schedule: Q04DX003 (ip), vehicle: saline 92 % of control | dose: 200.0 mg/kg/injection, schedule: Q01DX009 (ip), vehicle: Klucel (hydroxypropylcellulose) (HPC) 96 % of control | dose: 200.0 mg/kg/injection, schedule: Q04DX003 (ip), vehicle: saline 88 % of control | dose: 400.0 mg/kg/injection, schedule: Q01DX009 (ip), vehicle: Klucel (hydroxypropylcellulose) (HPC) 102 % of control | dose: 400.0 mg/kg/injection, schedule: Q04DX003 (ip), vehicle: saline 92 % of control
